Here are results for 19 compounds from patent US6710017B2, “Compositions and methods for controlling algae in recirculating water systems” (Avecia, Inc., priority 2000, dated 2004).

Like-named read-outs stand apart in the source and are kept apart here.

The procedure of data set [1]:
The margin of exposure versus NOEL is determined by estimating the total daily dose of the herbicide to a child in a swimming pool and determining the ratio of the NOEL to this. The total daily exposure may be estimated as follows. Oral exposure is estimated by assuming that the swimmer is in the water 3 hours per day, and that the swimmer ingests 50 milliliters of pool water per hour of swimming. It is also assumed that the herbicide will be present in the pool water at a concentration of 10 parts per million, equivalent to 10 milligrams per liter of pool water. The daily oral exposure is therefore estimated as the product of the swimming duration, the ingestion rate, and the concentration in the pool water. Dermal exposure is estimated by assuming the swimmer is in the water 3 hours per day, that the total body surface area, 8800 square centimeters, is immersed in the water, and that the herbicide permeates the skin at a rate, expressed in centimeters per hour, predicted by a model for skin permeation based on chemical structure, the Skinperm model, developed by W. F. ten Berge. A short description of the Skinperm model, can be accessed at: http://home.wxs.nl/˜wtberge/, which is incorporated herein by reference. The daily dermal exposure is then estimated as the product of the permeation rate, the concentration of the herbicide in the pool water (expressed in milligrams per cubic centimeter), the swimming duration, and the total body surface area. The total daily exposure is estimated as the sum of the daily oral and daily dermal exposure. The daily dose, expressed in milligrams per kilogram bodyweight per day, is then estimated as the total daily exposure divided by an assumed body weight of 22 kilograms.
The margin of exposure versus RfD is determined by estimating the total daily dose of the herbicide to a child in a swimming pool, as described above, and determining the ratio of the RfD to this (i.e. margin of exposure/RfD).

The nature of data set [2]: Margin of exposure versus NOEL (estimated total daily dose to a child in a swimming pool). The conditions noted are these: for Margin of Exposure vs NOEL (Target > 100): herbicides, Table A, ratio of NOEL to estimated daily dose, 10 ppm in pool water, child 22 kg, 3 hours per day; for Margin of Exposure vs NOEL: agricultural fungicides, Table B. As for the experimental part:
The herbicide preferably has a margin of exposure versus no observed effect level (“NOEL”) value of greater than 10, more preferably greater than 50, especially greater than 80, and more especially greater than 99. The margin of exposure versus NOEL is determined by estimating the total daily dose of the herbicide to a child in a swimming pool and determining the ratio of the NOEL to this. The total daily exposure may be estimated as follows. Oral exposure is estimated by assuming that the swimmer is in the water 3 hours per day, and that the swimmer ingests 50 milliliters of pool water per hour of swimming. It is also assumed that the herbicide will be present in the pool water at a concentration of 10 parts per million, equivalent to 10 milligrams per liter of pool water. The daily oral exposure is therefore estimated as the product of the swimming duration, the ingestion rate, and the concentration in the pool water. Dermal exposure is estimated by assuming the swimmer is in the water 3 hours per day, that the total body surface area, 8800 square centimeters, is immersed in the water, and that the herbicide permeates the skin at a rate, expressed in centimeters per hour, predicted by a model for skin permeation based on chemical structure, the Skinperm model, developed by W. F. ten Berge. A short description of the Skinperm model, can be accessed at: http://home.wxs.nl/˜wtberge/, which is incorporated herein by reference. The daily dermal exposure is then estimated as the product of the permeation rate, the concentration of the herbicide in the pool water (expressed in milligrams per cubic centimeter), the swimming duration, and the total body surface area. The total daily exposure is estimated as the sum of the daily oral and daily dermal exposure. The daily dose, expressed in milligrams per kilogram bodyweight per day, is then estimated as the total daily exposure divided by an assumed body weight of 22 kilograms.

The subject of data set [3] is mustard algae. In words: Remedial laboratory study on algae, change in turbidity. The conditions noted are these: for Change in Turbidity at active agent (ppm) five days post treatment: 5 ppm: 5 ppm active ingredient; for Change in Turbidity at active agent (ppm) five days post treatment: 5 ppm / Change in Turbidity at active agent (ppm) five days post treatment: 10 ppm: initial absorbance 0.10; for Change in Turbidity at active agent (ppm) five days post treatment: 5 ppm / Change in Turbidity at active agent (ppm) five days post treatment: 10 ppm / comments (Remedial Algae Control) / water turbidity: Table 2; for Change in Turbidity at active agent (ppm) five days post treatment: 10 ppm: 10 ppm active ingredient; for water turbidity: indicating killing of the mustard algae; for Turbidity @ 5 ppm active ingredient (Change in Turbidity at five days post treatment) / Turbidity @ 10 ppm active ingredient (Change in Turbidity at five days post treatment): Table 4.

Data set [4] has as its system mustard algae. The data set is described as follows: Preventative laboratory study on algae, visual growth score. The settings on record: for Score @ ppm active agent: 0: 0 ppm; for Score @ ppm active agent: 0 / Score @ ppm active agent: 10 / Score @ ppm active agent: 15 / Score @ 10 ppm / Score @ 15 ppm active ingredient: visual score 0 to 4, 10 days; for Score @ ppm active agent: 0 / Score @ ppm active agent: 10 / Score @ ppm active agent: 15: 27° C.; for Score @ ppm active agent: 10 / Score @ 10 ppm: 10 ppm; for Score @ ppm active agent: 15 / Score @ 15 ppm active ingredient: 15 ppm; for Comments (Preventive Algae Control): Table 1; for Score @ 10 ppm / Score @ 15 ppm active ingredient: Table 3.

The mark [5] stands for this setting: herbicides, Table A, 10 ppm in pool water, child 22 kg.

Consider “6-chloro-N-methyl-N′-(1-methylethyl)-1,3,5-triazine-2,4-diamine [Norflurazon]”, for which the “Margin of Exposure vs. RfD (Target > 1)” value in data set [1] (setting [5]) was determined as 0.3. In addition, in data set [2], the “Margin of Exposure vs NOEL (Target > 100)” value was 20.
The like results for `CCc1cccc(CC)c1N(COC)C(=O)CCl` [Alachlor, 2-chloro-2′,6′-diethyl-N-(methoxymethyl) acetanilide] were, in that order, 0.1 and 13.
`CCNc1nc(NC(C)C)nc(SC)n1` [Ametryn, 2-ethylamino-4-isopropylamino-6-methylthio-s-triazine]: in data set [1] (human, 3 hours per day, 10 ppm), the “Margin of Exposure vs. RfD (Target > 1)” value came out at 0.02. Further, in data set [2], the “Margin of Exposure vs NOEL (Target > 100)” value is given as 25.
Consider `COC(=O)c1ccccc1CS(=O)(=O)NC(=O)Nc1nc(OC)cc(OC)n1` [Bensulfuron ME, Methyl 2-[[[[[(4,6-dimethoxypyrimidin-2-yl)amino]carbonyl]amino]sulfonyl]methyl]-benzoate], for which the “Margin of Exposure vs. RfD (Target > 1)” value in data set [1] (human, 3 hours per day, 10 ppm) amounted to 2.7. Besides, in data set [2], the “Margin of Exposure vs NOEL (Target > 100)” value is listed as 265. For the same compound, in data set [3], the “Change in Turbidity at active agent (ppm) five days post treatment: 5 ppm” value (“Change in Turbidity at active agent … 5 ppm” below) is on record as “+0.01”, the “Change in Turbidity at active agent (ppm) five days post treatment: 10 ppm” value (from here on “Change in Turbidity at active agent … 10 ppm”) was determined as 0.00, the “comments (Remedial Algae Control)” value is listed as “algicidal activity” and the water turbidity entry is reported as “decreased significantly”.
Take `CC(C)OC(=O)Nc1cccc(Cl)c1` [Chlopropham, Isopropyl 3-chlorocarbanilate; isopropyl 3-chlorophenylcarbamate]: the “Margin of Exposure vs. RfD (Target > 1)” value in data set [1] (human, 3 hours per day, 10 ppm) is reported as 0.7. For the same compound, in data set [2], the “Margin of Exposure vs NOEL (Target > 100)” value is given as 67.
The corresponding values for `COc1nc(C)nc(NC(=O)NS(=O)(=O)c2ccccc2Cl)n1` [Chlorsulfuron, 2-chloro-N-[[(4-methoxy-6-methyl-1,3,5-triazin-2-yl)amino]carbonyl]benzenesulfonamide] are 0.7 and 67.
As to `Cc1cc(C2CC2)nc(Nc2ccccc2)n1` [Cyprodinil, 4-cyclopropyl-6-methyl-N-phenyl-2-pyrimidinamine], the “Margin of Exposure vs. RfD” value in data set [1] (human, 3 hours per day, 10 ppm) is given as 0.5. The “Margin of Exposure vs NOEL” value in data set [2] was 50.
The like results for `COc1ccc(C(=CC(=O)N2CCOCC2)c2ccc(Cl)cc2)cc1OC` [Dimethomorph, (E,Z)-4-[3-(4-chlorophenyl)-3-(3,4-dimethoxyphenyl)acryloyl]morpholine] were, in that order, 0.8 and 88.
Consider `CN(C)c1nc(=O)n(C2CCCCC2)c(=O)n1C` [Hexazinone, 3-cyclohexyl-6-(dimethylamino)-1-methyl-1,3,5-triazine-2,4(1H,3H)-dione], for which, in data set [1] (human, 3 hours per day, 10 ppm), the “Margin of Exposure vs. RfD (Target > 1)” value is reported as 0.6. The “Margin of Exposure vs NOEL (Target > 100)” value in data set [2] was 63. In data set [3], the “Change in Turbidity at active agent … 5 ppm” value is given as −0.03, the “Change in Turbidity at active agent … 10 ppm” value was −0.03, the “comments (Remedial Algae Control)” value is “algicidal activity” and the water turbidity result is given as “decreased significantly”.
For the compound `CCc1cnc(C2=NC(C)(C(C)C)C(=O)N2)c(C(=O)O)c1` (stereo not shown) [Imazethapyr, 2-[4,5-dihydro-4-methyl-4-(1-methylethyl)-5-oxo-1H-imidazol-2-yl]-5ethyl-3-pyridinecarboxylic acid], the “Margin of Exposure vs. RfD (Target > 1)” value in data set [1] (human, 3 hours per day, 10 ppm) came to 3.3. Further, the “Margin of Exposure vs NOEL (Target > 100)” value in data set [2] is recorded as 3333.
`CC(C)NC(=O)N1CC(=O)N(c2cc(Cl)cc(Cl)c2)C1=O` [Iprodione, 3-(3,5-dichlorophenyl)-N-(1-methylethyl)-2,4-dioxo-1-imidazolidinecarboxamide]: the “Margin of Exposure vs. RfD” value in data set [1] (human, 3 hours per day, 10 ppm) came out at 0.3. Also, the “Margin of Exposure vs NOEL” value in data set [2] is given as 81.
In the case of `COC(=O)c1ccccc1S(=O)(=O)NC(=O)Nc1nc(C)nc(OC)n1` [Metsulfuron-methyl, Methyl 2-[[[[(4-methoxy-6-methyl-1,3,5-triazin-2-yl)amino]carbonyl]amino]sulfonyl]benzoate], the “Margin of Exposure vs. RfD (Target > 1)” value in data set [1] (human, 3 hours per day, 10 ppm) is on record as 3.3. Also, in data set [2], the “Margin of Exposure vs NOEL (Target > 100)” value was 333. For the same compound, in data set [3], the “Change in Turbidity at active agent … 5 ppm” value is “+0.09”, the “Change in Turbidity at active agent … 10 ppm” value was “+0.06” and the “comments (Remedial Algae Control)” value was “Algistatic. More”.
Take `CCSC(=O)N1CCCCCC1` [Molinate, S-ethyl hexahydro-1H-azepine-1-carbothioate]: the “Margin of Exposure vs. RfD (Target > 1)” value in data set [1] (setting [5]) stood at 0.03. The “Margin of Exposure vs NOEL (Target > 100)” value in data set [2] is on record as 3.
Take `CSc1nc(NC(C)C)nc(NC(C)C)n1` [Prometryn, N,N′-bis(1-methylethyl)-6-(methylthio)-1,3,5-triazine-2,4-diamine]: the “Margin of Exposure vs. RfD (Target > 1)” value in data set [1] (human, 3 hours per day, 10 ppm) is listed as 0.1. For the same compound, in data set [2], the “Margin of Exposure vs NOEL (Target > 100)” value was 50.
Turning to `CCCC(=NOCC)C1=C(O)CC(CC(C)SCC)CC1=O` (stereo not shown) [Sethoxydim, 2-[1-(ethoxyimino)butyl]-5-[2-(ethylthio)propyl]-3-hydroxy-2-cyclohexen-1-one], the “Margin of Exposure vs. RfD (Target > 1)” value in data set [1] (setting [5]) was determined as 12. Moreover, the “Margin of Exposure vs NOEL (Target > 100)” value in data set [2] is 119.
In the case of `C=CC1(C)OC(=O)N(c2cc(Cl)cc(Cl)c2)C1=O` (stereo not shown) [Vinclozolin, 3-(3,5-dichlorophenyl)-5-methyl-5-vinyl-1,3-oxazolidine-2,4-dione], in data set [1] (human, 3 hours per day, 10 ppm), the “Margin of Exposure vs. RfD” value was found to be 0.3. Also, the “Margin of Exposure vs NOEL” value in data set [2] is 33.
Turning to `CCc1cccc(C)c1N(C(=O)CCl)C(C)COC` (stereo not shown) [metolachlor], in data set [4], the “Score @ ppm active agent: 0” value stood at 1, the “Score @ ppm active agent: 10” value stood at 1, the “Score @ ppm active agent: 15” value is given as 1 and the “Comments (Preventive Algae Control)” value is reported as “very little growth”. Further, in data set [3], the “Change in Turbidity at active agent … 5 ppm” value was “+0.12”, the “Change in Turbidity at active agent … 10 ppm” value is “+0.06” and the “comments (Remedial Algae Control)” value is “Algistatic. More”.
For “Poly(oxyethylene(dimethylimino)-ethylene(dimethylimino)-ethylene dichloride) [Polyquat]”, in data set [4], the “Score @ ppm active agent: 0” value stood at 2, the “Score @ ppm active agent: 10” value amounted to 2, the “Score @ 10 ppm” value was determined as 2 and the “Score @ ppm active agent: 15” value was found to be 2. Moreover, in data set [4], the “Score @ 15 ppm active ingredient” value was determined as 2 and the “Comments (Preventive Algae Control)” value is given as “Bloom noticeable”. In data set [3], the “Change in Turbidity at active agent … 5 ppm” value is reported as “+0.29”, the “Turbidity @ 5 ppm active ingredient (Change in Turbidity at five days post treatment)” value is reported as “+0.29”, the “Change in Turbidity at active agent … 10 ppm” value is given as “+0.28” and the “Turbidity @ 10 ppm active ingredient (Change in Turbidity at five days post treatment)” value is given as “+0.28”.
On to “alkyl dimethyl benzylammonium chloride [ADBAC]”, for which, in data set [4], the “Score @ ppm active agent: 0” value amounted to 3, the “Score @ ppm active agent: 10” value was determined as 3, the “Score @ 10 ppm” value is on record as 3 and the “Score @ ppm active agent: 15” value was found to be 0. Further, in data set [4], the “Score @ 15 ppm active ingredient” value amounted to 0. In addition, in data set [3], the “Change in Turbidity at active agent … 5 ppm” value is recorded as “+0.13”, the “Turbidity @ 5 ppm active ingredient (Change in Turbidity at five days post treatment)” value is on record as “+0.13”, the “Change in Turbidity at active agent … 10 ppm” value was “+0.03” and the “Turbidity @ 10 ppm active ingredient (Change in Turbidity at five days post treatment)” value was “+0.03”. Moreover, in data set [3] (at 5× and 10× the EPA allowable dose), the “control of the mustard algae” value is “no control”.
